Source: PMC10598831 (JACS Au, 2023)

What was measured:
[1] = molecular target: T1, GDI2 (Homo sapiens, UniProt P50395); assay: GDI2 degradation by Western blot, AsPC-1 cells; format: cell-based
T1 sequence (P50395 1-445): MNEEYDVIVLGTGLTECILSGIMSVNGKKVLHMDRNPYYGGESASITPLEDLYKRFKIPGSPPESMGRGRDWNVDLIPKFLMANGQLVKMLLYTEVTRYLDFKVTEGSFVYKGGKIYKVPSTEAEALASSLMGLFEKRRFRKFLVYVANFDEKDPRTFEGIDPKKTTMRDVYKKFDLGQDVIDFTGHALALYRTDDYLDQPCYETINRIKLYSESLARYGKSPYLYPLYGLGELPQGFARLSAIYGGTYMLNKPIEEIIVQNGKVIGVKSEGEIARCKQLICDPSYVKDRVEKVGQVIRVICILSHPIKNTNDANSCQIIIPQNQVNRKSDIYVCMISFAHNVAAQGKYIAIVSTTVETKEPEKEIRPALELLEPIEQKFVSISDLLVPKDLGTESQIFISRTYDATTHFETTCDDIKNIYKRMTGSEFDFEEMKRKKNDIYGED

[2] = molecular target: T2, GDI1 (Homo sapiens, UniProt P31150); assay: GDI1 level by Western blot, AsPC-1 cells; format: cell-based; conditions: up to 10 μM
T2 sequence (P31150 1-447): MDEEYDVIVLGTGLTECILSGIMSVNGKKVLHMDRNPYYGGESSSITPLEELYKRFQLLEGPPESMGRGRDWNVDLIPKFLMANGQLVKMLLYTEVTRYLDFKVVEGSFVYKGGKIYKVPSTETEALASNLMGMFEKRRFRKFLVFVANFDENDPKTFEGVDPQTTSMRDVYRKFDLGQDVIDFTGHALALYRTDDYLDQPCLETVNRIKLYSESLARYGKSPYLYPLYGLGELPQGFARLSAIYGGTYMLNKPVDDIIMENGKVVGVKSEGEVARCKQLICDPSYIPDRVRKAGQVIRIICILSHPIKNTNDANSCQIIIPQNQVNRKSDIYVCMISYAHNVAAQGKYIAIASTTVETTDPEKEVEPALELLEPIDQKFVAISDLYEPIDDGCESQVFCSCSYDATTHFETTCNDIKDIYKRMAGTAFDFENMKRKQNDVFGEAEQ

[3] = tested on: PDAC PDX tumors; assay: Pancreatic adenocarcinoma PDX model; format: in vivo, mouse
[4] = molecular target: T1, GDI2; assay: Biolayer interferometry; format: binding
[5] = tested on: AsPC-1 xenograft; assay: AsPC-1 pancreatic carcinoma xenograft model; format: in vivo, mouse

Compound Cc1cc(C)cc(COc2cc3c(cc2OCc2cc(C)cc(C)c2)[C@H]2C[C@](O)(Cc4cn(CCOCCOCCOCCNC(=O)[C@@H](CC(C)C)NC(=O)[C@@H](O)[C@H](N)Cc5ccccc5)nn4)C[C@H](C)N2CC3)c1 [Compound 21] has a Dmax ([1]; ASPC1, read-out: GDI2 Dmax) of 84.2%, a GDI2 depleted ([1]; AsPC-1 cells, after 9 h of treatment) of over 70% and a DC50 ([1]; read-out: GDI2 DC50, AsPC-1 cells, 0.63–10 μM, 24 h, n = 3) of 1480 nM. The “Effect on GDI1 protein level” value [2] was “without affecting the GDI1 protein level”, the Toxicity ([3]; 18 days of treatment) was “without significant toxicity” and the PDAC tumor growth ([3]; (+)-37 40 mg/kg ip., 21 15 mg/kg ip., every 3 days, 18 days) was “successfully suppressed PDAC tumor growth”. The Kd [4] was 23.9 µM, the “GDI2 not restored in tumor tissue” value ([5]; 15 mg/kg ip., 72 h post final injection, Western blot) was “more than 90%” and the “Toxicity (body weight, histopathology of major organs)” value ([5]; 18 days of treatment) was “No significant signs of toxicity”. The “Tumor growth vs vehicle” value ([5]; (+)-37 25 or 40 mg/kg ip., 21 15 mg/kg ip., every 3 days, 18 days) was “significantly attenuated tumor growth”.
